Results from patent US8372807B2, “Methods of modulating uric acid levels” (Ardea Biosciences, Inc., priority 2009, dated 2013).

Molecular target: T1, hURAT1 transporter (URAT-1) (Homo sapiens, UniProt Q96S37)
T1 construct: Full-length human URAT1 gene (SLC22A12) was subcloned from plasmid pCMV6-XL5
T1 sequence (Q96S37 1-553): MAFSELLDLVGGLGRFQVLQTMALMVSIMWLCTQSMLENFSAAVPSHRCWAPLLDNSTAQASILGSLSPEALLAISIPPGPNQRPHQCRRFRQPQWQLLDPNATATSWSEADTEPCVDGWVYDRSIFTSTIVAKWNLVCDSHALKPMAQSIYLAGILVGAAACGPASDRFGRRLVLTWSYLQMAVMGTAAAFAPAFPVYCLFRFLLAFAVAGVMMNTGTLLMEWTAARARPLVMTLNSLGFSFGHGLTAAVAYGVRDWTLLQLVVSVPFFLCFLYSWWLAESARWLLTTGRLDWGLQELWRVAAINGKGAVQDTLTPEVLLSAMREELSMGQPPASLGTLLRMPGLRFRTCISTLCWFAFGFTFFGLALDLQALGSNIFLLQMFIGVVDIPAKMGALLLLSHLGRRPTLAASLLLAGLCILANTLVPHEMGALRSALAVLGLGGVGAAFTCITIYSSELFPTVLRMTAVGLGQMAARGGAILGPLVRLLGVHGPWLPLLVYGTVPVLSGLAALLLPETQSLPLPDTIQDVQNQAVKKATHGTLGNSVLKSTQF
Assay: Uric Acid Uptake Assay (URAT-1 EC50)
Format: cell-based
Settings: HEK293/urat1 cells, C14 uric acid uptake, 40 μM uric acid, 10 minutes at room temperature
Text: Uric Acid Uptake Assay (URAT-1 EC50)
Creation of Stable Cell Lines Expressing hURAT1 Transporter: Full-length human URAT1 gene (SLC22A12) was subcloned from plasmid pCMV6-XL5 (Origene) into eukaryotic expression plasmid pCMV6/Neo (Origene) using Not I restriction sites. Gene sequencing confirmed the sequence of hURAT1 as outlined in Genbank (Accession #NM_144585.2). HEK293 human embryonic kidney cells (ATCC#CRL-1573) were propagated in EMEM tissue culture medium as described by ATCC in an atmosphere of 5% CO2 and 95% air. Transfections of HEK293 cells with the pCMV6/Neo/URAT1 construct were performed using L2000 transfection reagent (Invitrogen) as described by the manufacturer. After 24 h the transfected cells were split into 10 cm tissue culture plates and grown for 1 day after which the medium was replaced with fresh growth medium containing G418 (Gibco) at 0.5 mg/ml final concentration. Drug-resistant colonies were selected after approximately 8 days and then tested for ^14C-uric acid transport activity. The HEK293/urat1 cells are plated on Poly-D-Lysine Coated 96-well Plates at a density of 75,000 cells per well.
Cells were grown overnight (20-26 hours) at 37° C. in an incubator. Plates were allowed to come to room temperature and media was washed out with one wash of 250 μl of Wash Buffer (125 mM Na Gluconate, 10 mM Hepes pH 7.3). Compound or vehicle is added in assay buffer with C14 Uric Acid for a final concentration of 40 μM Uric Acid with a specific activity of 54 mCi/mmol Assay Buffer is 125 mM Sodium Gluconate, 4.8 mM Potassium Gluconate, 1.2 mM Potassium phosphate, monobasic, 1.2 mM magnesium sulfate, 1.3 mM Ca Gluconate, 5.6 mM Glucose, 25 mM HEPES, pH 7.3. Plates were incubated at room temperature for 10 minutes then washed 3 times with 50 μl Wash Buffer and 3 times with 250 μl Wash Buffer. Microscint 20 Scintillation Fluid was added and plates were incubated overnight at 45° C. to equilibrate. Plates are then read on the TopCount Plate Reader and an EC50 value generated. (See Enomoto et al, Nature, 2002, 417, 447-451 and Anzai et al, J. Biol. Chem., 2004, 279, 45942-45950.)
Compounds prepared as described above in examples 24-32, were examined according to the procedure described herein and EC50 values generated. The table below summarizes the activity of the compounds in the Uric Acid Uptake Assay, wherein

SMILES	EC50 [µM]
CCOC(=O)C(C)(C)Oc1n[nH]c(C)c1-c1cccc2ccccc12 [26 (step C), Ethyl 2-methyl-2-(5-methyl-4-(naphthalen-1-yl)-1H-pyrazol-3-yloxy)propanoate]	< 5
Cc1[nH]nc(OC(C)(C)C(=O)O)c1-c1cccc2ccccc12 [26 (step D), 2-methyl-2-(5-methyl-4-(naphthalen-1-yl)-1H-pyrazol-3-yloxy)propanoic acid]	< 5
CC(C)(Oc1ccnn1-c1cccc2ccccc12)C(=O)O [Example 24, 2-Methyl-2-(1-(naphthalen-1-yl)-1H-pyrazol-5-yloxy)propanoic acid]	5 to 20
CC(C)(Sc1ccnn1-c1cccc2ccccc12)C(=O)O [Example 25, 2-Methyl-2-(1-(naphthalen-1-yl)-1H-pyrazol-5-ylthio)propanoic acid]	< 5
CC(C)(Sc1cnnn1-c1cccc2ccccc12)C(=O)O [Example 28, 2-Methyl-2-(1-(naphthalen-1-yl)-1H-1,2,3-triazol-5-ylthio)propanoic acid]	< 5
CC(C)(Sc1nnnn1-c1cccc2ccccc12)C(=O)O [Example 30, 2-Methyl-2-(1-(naphthalen-1-yl)-1H-tetrazol-5-ylthio)propanoic acid]	< 5
O=C(O)CSc1snnc1-c1cccc2ccccc12 [Example 32, 2-(4-(Naphthalen-1-yl)-1,2,3-thiadiazol-5-ylthio)acetic acid]	5 to 20
